BindingDB's records for PubMed 39892094 (University of Lubeck and University Medical Center …)

Columns and labels:
[1] = Inhibition of MCT-1 in human A549 cells assessed as potentiation of 3-BP-mediated cytotoxicity by measuring decrease in cell viability incubated for 72 hrs in presence of 3-BP by MTT assay
[2] = Reversal of ABCB1-mediated multidrug resistance in human A2780 ADR cells assessed as increase in doxorubicin-mediated cytotoxicity incubated for 72 hrs in presence of doxorubicin by MTT assay
[3] = Reversal of ABCC1-mediated multidrug resistance in human NCI-H69AR cells assessed as increase in doxorubicin-mediated cytotoxicity incubated for 72 hrs in presence of doxorubicin by MTT assay
[4] = Reversal of ABCG2 (unknown origin)-mediated multidrug resistance transfected in dog MDCK-II-BCRP cells assessed as increase in SN-38-mediated cytotoxicity incubated for 72 hrs in presence of SN-38 by MTT assay

| Compound | IC50 [1] | EC50 [2] | EC50 [3] | EC50 [4] |
| --- | --- | --- | --- | --- |
| O=C(Cn1nc(C(=O)Nc2ccccn2)c2ccccc21)Nc1cc(Cl)ccc1Cl | 1.89 µM | 0.089 µM | 33.1 µM | 0.326 µM |
| O=C(Cn1nc(C(=O)Nc2cccnc2)c2ccccc21)Nc1ccc(Cl)cc1 | 3.32 µM | 4.67 µM | 6.86 µM | 1.05 µM |
| COc1cccc(NC(=O)c2nn(CC(=O)Nc3ccccc3OC)c3ccccc23)c1 | – | 3.34 µM | 5.53 µM | 0.603 µM |
| COc1cccc(NC(=O)Cn2nc(C(=O)Nc3cccc(OC)c3)c3ccccc32)c1 | – | 2.01 µM | 8.55 µM | – |
